Measured values reported in patent US20260138948A1, “N-SUBSTITUTED INDOLES AS 5-HYDROXYTRYPTAMINE (5-HT) SEROTONIN RECEPTOR AGONISTS AND ANTAGONISTS” (Terran Biosciences Inc., priority 2021, published 2026).

What was measured:
5-HT2A receptor [1] = target: T1, 5-HT2A receptor (Homo sapiens, UniProt P28223); assay: Calcium mobilization assay, antagonist format, 5-HT2A; assay type: cell-based; settings: @100 nM; agonist challenge at EC80
T1 construct: host or cells: unnamed cell lines
Procedure: (§1) Protocol—in vitro testing at select 5-hydroxytryptamine (5-HT; serotonin) receptors was conducted.
(§2) • 1. Cell lines were expanded from freezer stocks according to standard procedures. • 2. Cells were seeded in a total volume of 20 μL into black-walled, clear-bottom, Poly-D-lysine coated 384-well microplates and incubated at 37° C. for the appropriate time prior to testing.
(§3) • 1. Assays were performed in 1× Dye Loading Buffer consisting of 1× Dye, 1× Additive A and • 2.5 mM Probenecid in HBSS/20 mM Hepes. Probenicid was prepared fresh. • 2. Cells were loaded with dye prior to testing. Media was aspirated from cells and replaced with 20 μL Dye Loading Buffer. • 3. Cells were incubated for 30-60 minutes at 37° C.
(§4) • 1. For antagonist determination, cells were pre-incubated with sample followed by agonist challenge at the EC80 concentration. • 2. Intermediate dilution of sample stocks was performed to generate 3× sample in assay buffer. • 3. After dye loading, cells were removed from the incubator and 10 μL 3× sample was added. Cells were incubated for 30 minutes at room temperature in the dark to equilibrate plate temperature. Vehicle concentration was 1%. • 4. Compound antagonist activity was measured on a FLIPR Tetra (MDS). Calcium mobilization was monitored for 2 minutes and 10 μL EC80 agonist in HBSS/20 mM Hepes was added to the cells 5 seconds into the assay.
(§5) • 1. Compound activity was analyzed using CBIS data analysis suite (ChemInnovation, CA). • 2. For agonist mode assays, percentage activity is calculated using the following formula: % Activity=100%×(mean RFU of test sample−mean RFU of vehicle control)/(mean MAX RFU control ligand −mean RFU of vehicle control). • 3. For positive allosteric mode assays, percentage modulation was calculated using the following formula: % Modulation=100%×((mean RFU of test sample−mean RFU of EC20 control)/(mean RFU of MAX control ligand −mean RFU of EC20 control)). • 4. For antagonist and negative allosteric modulation mode assays, percentage inhibition is calculated using the following formula: % Inhibition=100%×(1−(mean RFU of test sample−mean RFU of vehicle control)/(mean RFU of EC80 control−mean RFU of vehicle control)).
Compounds were evaluated as 5-HT2A antagonists at 100 nM (one hundred nanomolar), or may be evaluated at a higher concentration. For research comparative purposes, a literature compound—(R)-1-(5-methoxy-1H-indol-1-yl)-N,N-dimethylpropan-2-amine (AAZ-A-154) (Cell 2021, 184, 2779-2792.e18)—was included in the screening assays. Additionally, 5-hydroxytryptamine/serotonin (5-HT) was included in the screening assay as a positive control agonist, and Altanserin HCl was included as a 5-HT2A antagonist positive control.

5-HT2C receptor = target: T2, 5-HT2C receptor (Homo sapiens, UniProt P28335); assay: Calcium mobilization assay, antagonist format, 5-HT2C; assay type: cell-based; settings: for inhibition at 10 µM: agonist challenge at EC80
T2 construct: host or cells: unnamed cell lines
T2 sequence (P28335 33-458): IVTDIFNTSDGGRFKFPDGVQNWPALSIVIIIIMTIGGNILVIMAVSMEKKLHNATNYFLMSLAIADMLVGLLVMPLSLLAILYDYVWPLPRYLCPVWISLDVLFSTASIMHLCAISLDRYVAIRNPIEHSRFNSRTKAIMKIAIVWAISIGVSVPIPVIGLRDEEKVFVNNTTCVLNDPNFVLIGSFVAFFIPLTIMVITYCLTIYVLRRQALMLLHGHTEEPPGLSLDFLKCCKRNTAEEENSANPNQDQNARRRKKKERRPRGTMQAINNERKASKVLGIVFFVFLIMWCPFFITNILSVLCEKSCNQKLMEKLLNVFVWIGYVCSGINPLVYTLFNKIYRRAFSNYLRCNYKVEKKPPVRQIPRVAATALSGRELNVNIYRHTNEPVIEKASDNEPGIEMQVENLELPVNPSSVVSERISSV
Procedure: as §1, §2, §3, §4, §5
[…] For research comparative purposes, a literature compound—(R)-1-(5-methoxy-1H-indol-1-yl)-N,N-dimethylpropan-2-amine (AAZ-A-154) (Cell 2021, 184, 2779-2792.e18)—was included in the screening assays. Additionally, 5-hydroxytryptamine/serotonin (5-HT) was included in the screening assay as a positive control agonist, and SB242084 was used in the screening assay as a literature 5-HT2C antagonist positive control. […] Compounds 2, 3 and 93 each achieved greater than 75% antagonism of the 5-HT2C receptor, with compounds 3 and 93 achieving approximately 98% and 97% antagonism, respectively.

5-HT2B receptor = target: T3, 5-HT2B receptor (Homo sapiens, UniProt P41595); assay: Calcium mobilization assay, agonist format, 5-HT2B; assay type: cell-based; settings: % activity relative to control ligand, read-out: 5-HT2B agonist efficacy @5 µM
T3 construct: host or cells: unnamed cell lines
T3 sequence (P41595 whole entry): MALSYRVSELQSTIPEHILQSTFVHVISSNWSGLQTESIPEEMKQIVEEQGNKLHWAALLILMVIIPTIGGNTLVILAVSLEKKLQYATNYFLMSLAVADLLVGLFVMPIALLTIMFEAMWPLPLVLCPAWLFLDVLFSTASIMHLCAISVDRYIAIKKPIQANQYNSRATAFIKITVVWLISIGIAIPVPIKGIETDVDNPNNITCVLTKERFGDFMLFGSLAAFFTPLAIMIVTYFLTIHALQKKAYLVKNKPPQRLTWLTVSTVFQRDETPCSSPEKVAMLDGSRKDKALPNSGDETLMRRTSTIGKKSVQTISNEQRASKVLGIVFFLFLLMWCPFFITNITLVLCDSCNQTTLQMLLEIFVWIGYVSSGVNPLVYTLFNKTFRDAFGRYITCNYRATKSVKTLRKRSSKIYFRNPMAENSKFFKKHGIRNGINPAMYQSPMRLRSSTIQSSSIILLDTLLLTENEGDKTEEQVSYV
Procedure: as §1, §2, §3
(§6) • 1. For agonist determination, cells were incubated with sample to induce response. • 2. After dye loading, cells were removed from the incubator and 10 μL HBSS/20 mM Hepes was added. 3× vehicle was included in the buffer when performing agonist dose curves to define the EC80 for subsequent antagonist assays. Cells were incubated for 30 minutes at room temperature in the dark to equilibrate plate temperature. • 3. Intermediate dilution of sample stocks was performed to generate 4× sample in assay buffer. • 4. Compound agonist activity was measured on a FLIPR Tetra (MDS). Calcium mobilization was monitored for 2 minutes and 10 μL 4× sample in HBSS/20 mM Hepes was added to the cells 5 seconds into the assay.
as §5

5-HT2A receptor [2] = target: T1, 5-HT2A receptor; assay: Calcium mobilization assay, agonist format, 5-HT2A; assay type: cell-based; settings: % activity relative to control ligand, read-out: 5-HT2A agonist efficacy @10 µM
Procedure: as §1, §2, §3, §6, §5

5HT2A sensor = settings: general statement on known hallucinogens and non-hallucinogenic congeners; cited from earlier work
[3] = Metabolic stability in human liver microsomes; assay type: in vitro ADME; settings: for difference in half-life and intrinsic clearance compared with reference compound (R)-1-(5-methoxy-1H-indol-1-yl)-N,N-dimethylpropan-2-amine / microsomal CLint at 1 μM: human liver microsomes; for difference in half-life and intrinsic clearance compared with reference compound (R)-1-(5-methoxy-1H-indol-1-yl)-N,N-dimethylpropan-2-amine: comment on Table 2; for half-life at 1 μM / microsomal CLint at 1 μM / CLint scaled at 1 μM: liver microsomes (pooled); for half-life at 1 μM: human liver microsomes 0.5 mg/mL, test compound 1.0 μM, 37° C., NADPH; for microsomal CLint at 1 μM: intrinsic clearance = 0.693/T1/2/mg microsome protein per mL, read-out: CLint(mic); for CLint scaled at 1 μM: human, scaled from CLint(mic) with 45 mg microsomal protein/g liver and 20 g liver/kg
Procedure: The test compound at 1.0 μM in singlet, or positive controls including Testosterone (CYP3A4 substrate), Propafenone (CYP2D6 substrate) or Diclofenac (CYP2C9 substrate) was incubated with the liver microsomes (Corning, Xenotech, or other credible vendor, pooled from multiple donors) at 0.5 mg/mL, respectively. The mixture was warmed up at 37° C. for 10 minutes and the reactions were initiated by the addition of a NADPH regenerating system (˜1.0 mM). The test compound incubated with the liver microsomes at 37° C. without the NADPH regenerating system served as the negative control reaction.
The reaction samples were removed at multiple time points (such as 0, 5, 15, 30, 45 and 60 minutes) and the sample without NADPH (NCF) was removed at 60 minutes. All the samples were immediately mixed with cold acetonitrile containing internal standard (IS) to stop the reaction.
Samples were analyzed by LC/MS/MS and the disappearance of test compound were assessed base on peak area ratios of analyte/IS (no standard curve). The microsomal intrinsic clearance and T1/2 values were calculated using the following equation: […]
The microsomal intrinsic clearance and T1/2 values were calculated using the following equation: […]
In these experiments the comparator compound was a suitable reference standard. In one embodiment the comparator compound was (R)-1-(5-methoxy-1H-indol-1-yl)-N,N-dimethylpropan-2-amine.

T1 sequence (P28223 whole entry): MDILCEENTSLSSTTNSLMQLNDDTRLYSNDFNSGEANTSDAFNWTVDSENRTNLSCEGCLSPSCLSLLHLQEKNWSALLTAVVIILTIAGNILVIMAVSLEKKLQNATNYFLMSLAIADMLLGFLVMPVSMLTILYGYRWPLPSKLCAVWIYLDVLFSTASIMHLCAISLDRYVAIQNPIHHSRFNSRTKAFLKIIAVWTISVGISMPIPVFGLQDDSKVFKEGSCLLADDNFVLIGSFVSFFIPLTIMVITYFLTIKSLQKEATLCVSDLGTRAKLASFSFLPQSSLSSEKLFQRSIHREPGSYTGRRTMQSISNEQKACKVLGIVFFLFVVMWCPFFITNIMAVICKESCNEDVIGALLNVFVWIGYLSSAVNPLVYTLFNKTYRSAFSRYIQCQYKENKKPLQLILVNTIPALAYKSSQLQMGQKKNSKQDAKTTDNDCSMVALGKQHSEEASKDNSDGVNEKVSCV

Structure (SMILES) | inhibition at 0.1 µM (5-HT2A receptor [1]) [%] | inhibition at 10 µM (5-HT2C receptor) [%] | activation at 5 µM (5-HT2B receptor) [%] | activation at 10 µM (5-HT2A receptor [2]) [%] | activation of the 5HT2A sensor assay in agonist mode (5HT2A sensor) | further results
COc1ccn2c(CC(C)N(C)C)cnc2c1 (racemic) [Compound 91, (R/S)-1-(7-methoxyimidazo[1,2-a]pyridin-3-yl)-N,N-dimethylpropan-2-amine] | -3.3 | 6.1 | 1 | 0.6 | – | –
COc1ccn2c(CC(C)N(C)C)ncc2c1 (racemic) [Compound 92, (R/S)-1-(7-methoxyimidazo[1,5-a]pyridin-3-yl)-N,N-dimethylpropan-2-amine] | 1.6 | 7.2 | 2 | 0.3 | – | –
CC(Cc1ncn2cc(F)ccc12)N(C)C (racemic) [Compound 93, (R/S)-1-(6-fluoroimidazo[1,5-a]pyridin-1-yl)-N,N-dimethylpropan-2-amine] | 5.7 | 97.1 | 2.7 | 1.8 | – | antagonism of the 5-HT2C receptor (5-HT2C receptor; 10 μM (ten micromolar)): ~97%
CCN(CC)C(=O)[C@@H]1C=C2c3cccc4[nH]c(Br)c(c34)C[C@H]2N(C)C1 [BOL148] | – | – | – | – | do not activate the 5HT2A sensor assay in agonist mode | –
C[C@H](Cn1ccc2cc(OC3CC3)ccc21)N(C)C [Compound 1, (R)-1-(5-cyclopropoxy-1H-indol-1-yl)-N,N-dimethylpropan-2-amine] | -13.2 | 20.7 | -0.7 | -1.4 | – | –
C[C@H](Cn1ccc2cc(S(F)(F)(F)(F)F)ccc21)N(C)C [Compound 2, (2R)-N,N-dimethyl-1-[5-(pentafluoro-λ^6-sulfanyl)indol-l-yl]propan-2-amine] | -0.8 | 76.4 | 6.4 | 4.4 | – | –
[2H]C([2H])([2H])N(C([2H])([2H])[2H])[C@]([2H])(C([2H])([2H])[2H])C([2H])([2H])n1ccc2cc(OC)ccc21 [Compound 6, (2R)-1,1,1,2,3,3-hexadeuterio-3-(5-methoxyindol-1-yl)-N,N-bis(trideuteriomethyl)propan-2-amine] | – | – | – | – | – | difference in half-life and intrinsic clearance compared with reference compound (R)-1-(5-methoxy-1H-indol-1-yl)-N,N-dimethylpropan-2-amine [3]: significant and beneficial differences in half-life and intrinsic clearance; half-life at 1 μM [3]: 1.82 h; microsomal CLint at 1 μM [3]: 12.7 µL/min/mg; CLint scaled at 1 μM [3]: 11.4 mL/min/kg
CCN(CC)CCc1c[nH]c2cc(F)ccc12 [Compound 6-F-DET] | – | – | – | – | do not activate the 5HT2A sensor assay in agonist mode | –
COc1ccc2c(CCN(C)C)c[nH]c2c1 [Compound 6-MeO-DMT] | – | – | – | – | do not activate the 5HT2A sensor assay in agonist mode | –
[2H]C([2H])([2H])Oc1ccc2c(ccn2C([2H])([2H])[C@]([2H])(N(C)C)C([2H])([2H])[2H])c1 [Compound 151, (2R)-1,1,1,2,3,3-hexadeuterio-N,N-dimethyl-3-[5-(trideuteriomethoxy)indol-1-yl]propan-2-amine] | – | – | – | – | – | difference in half-life and intrinsic clearance compared with reference compound (R)-1-(5-methoxy-1H-indol-1-yl)-N,N-dimethylpropan-2-amine [3]: most significant difference in half-life and intrinsic clearance ratio; half-life at 1 μM [3]: 2 h; microsomal CLint at 1 μM [3]: 11.5 µL/min/mg; CLint scaled at 1 μM [3]: 10.4 mL/min/kg
[2H]C([2H])([2H])Oc1ccc2c(ccn2C([2H])([2H])[C@]([2H])(N(C([2H])([2H])[2H])C([2H])([2H])[2H])C([2H])([2H])[2H])c1 [Compound 152, (2R)-1,1,1,2,3,3-hexadeuterio-3-[5-(trideuteriomethoxy)indol-1-yl]-N,N-bis(trideuteriomethyl)propan-2-amine] | – | – | – | – | – | difference in half-life and intrinsic clearance compared with reference compound (R)-1-(5-methoxy-1H-indol-1-yl)-N,N-dimethylpropan-2-amine [3]: significant and beneficial differences in half-life and intrinsic clearance; half-life at 1 μM [3]: 1.91 h; microsomal CLint at 1 μM [3]: 12.4 µL/min/mg; CLint scaled at 1 μM [3]: 11.1 mL/min/kg
CN(C)CCc1c[nH]c2ccccc12 [DMT, N,N-dimethyltryptamine] | – | – | – | – | activate the 5HT2A sensor assay in agonist mode | –
COc1cc(CC(C)N)c(OC)cc1I (centres unmarked) [DOI, 2,5-dimethoxy-4-iodoamphetamine] | – | – | – | – | activate the 5HT2A sensor assay in agonist mode | –
O=C(c1ccc(F)cc1)C1CCN(CCn2c(=O)[nH]c3ccccc3c2=O)CC1 [Ketanserin, ketanserin] | – | – | – | – | do not activate the 5HT2A sensor assay in agonist mode | –
CN[C@H](C)Cc1ccc2c(c1)OCO2 [L-MDMA] | – | – | – | – | do not activate the 5HT2A sensor assay in agonist mode | –
CCN(CC)C(=O)[C@@H]1C=C2c3cccc4[nH]cc(c34)C[C@H]2N(C)C1 [LSD, lysergic acid diethylamide] | – | – | – | – | activate the 5HT2A sensor assay in agonist mode | –
